Where a name gives a salt, the structure may show the parent alone.
The compounds below were run against T1, Smoothened (SMO) (Mus musculus, UniProt P56726) (assay: Smoothened (SMO)/Sonic Hedgehog (SHh) Transient Transcriptional Activation Assay (Gli-luciferase reporter in C3H10T1/2 cells)). Conditions: 2 μM compound; transfected C3H10T1/2 cells, recombinant human SHh 250 ng/mL, 20 hours, luciferase readout; 2 µM.
T1 construct: C3H10T1/2 cells (ATCC #CCL-226) were split and seeded; endogenous in cells; host or cells: C3H10T1/2 (ATCC #CCL-226)
T1 sequence (P56726 33-793): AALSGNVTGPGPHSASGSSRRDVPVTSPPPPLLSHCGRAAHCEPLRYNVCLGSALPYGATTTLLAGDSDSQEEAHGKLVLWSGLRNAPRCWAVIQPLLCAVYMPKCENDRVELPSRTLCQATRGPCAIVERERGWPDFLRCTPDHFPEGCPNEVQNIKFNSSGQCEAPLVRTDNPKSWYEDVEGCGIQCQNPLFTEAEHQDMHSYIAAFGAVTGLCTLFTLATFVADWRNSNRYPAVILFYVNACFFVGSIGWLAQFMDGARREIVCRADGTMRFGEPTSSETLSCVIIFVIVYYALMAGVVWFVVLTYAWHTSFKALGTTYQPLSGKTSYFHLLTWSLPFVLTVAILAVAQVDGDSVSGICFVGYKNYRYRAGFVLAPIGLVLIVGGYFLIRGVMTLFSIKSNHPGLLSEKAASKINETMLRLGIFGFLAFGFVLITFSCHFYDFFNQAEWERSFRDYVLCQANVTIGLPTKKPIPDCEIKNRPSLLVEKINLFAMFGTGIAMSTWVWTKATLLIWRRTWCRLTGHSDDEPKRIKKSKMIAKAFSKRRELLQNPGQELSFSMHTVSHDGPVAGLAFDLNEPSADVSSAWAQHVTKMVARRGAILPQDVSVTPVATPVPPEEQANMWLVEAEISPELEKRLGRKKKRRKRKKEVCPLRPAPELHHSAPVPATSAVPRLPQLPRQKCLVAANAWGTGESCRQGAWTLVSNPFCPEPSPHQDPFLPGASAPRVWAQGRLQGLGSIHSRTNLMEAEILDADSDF
Assay type: cell-based, murine
Experimental: As noted above, the compounds of the invention are useful as inhibitors of SMO. • Methods for determining the in vitro activity of these compounds are described below: Smoothened (SMO)/Sonic Hedgehog (SHh) Transient Transcriptional Activation Assay
On Day 1, 2×10^6 C3H10T1/2 cells (ATCC #CCL-226) were split and seeded in 12 mL of growth medium Basal Medium Eagle (BME, Invitrogen #21010-046) supplemented with 2 mM L-glutamine (Invitrogen #25030-081), 0.1 units/mL penicillin and 0.1 μg/mL streptomycin (Invitrogen #15140-122), and 10% Fetal Bovine Serum (FBS, Invitrogen #16140-071) in a T-75 flask (Costar #3376). They were allowed to attach for 4 hours at 37° C., 5% CO2. The cells were then transfected using Fugene 6 (Roch #11 814 443 001) in the following reaction: 48 μL Fugene 6 and 745 μL Opti-MEM (Invitrogen #31985-070) were mixed and allowed to sit at room temperature for 5 minutes. 8 μg of pGL4.14/mGli(CS) DNA (10× murine Gli response elements and minimal CS promoter) and 0.5 μg of pEGFP DNA (Clontech) were added, gently mixed and incubated at room temperature for 20 minutes. This entire transfection mix was then added to the T-75 flask containing the cells. The cells were incubated at 37° C., 5% CO2 for 18-24 hours.
On Day 2, the transfected cells were trypsinized and seeded into white 96 well plates (Costar #3917) in 100 μL/well of growth medium at a concentration of 20,000 cells/well. The cells were allowed to recover for 4 hours before adding serum starvation medium Dulbecco's Modified Eagle Medium (DMEM, Invitrogen #21063-029) supplemented with 2 mM L-glutamine, 0.1 units/mL penicillin and 0.1 μg/mL streptomycin, and 0.5% Calf Serum (CS, Invitrogen #26170-043). The growth media was aspirated off, and the cells were rinsed with 100 μL of starvation media. 95 μL of starvation media was then added to each well. The cells were incubated for 20 hours at 37° C., 5% CO2.
On Day 3, cells were dosed with test compounds at a final concentration ranging from 2 μM to 2 nM. Immediately after dosing cells with compounds, recombinant human sonic hedgehog (SHh, R&D Systems #1845-SH) was add to a final concentration of 250 ng/mL. A 25 μg vial of SHh was reconstituted with 250 μL PBS/0.1% BSA to give a 100 ng/μL working stock. This working stock was then diluted 1:20 in starvation media. The transfected cells were incubated with compounds and SHh for 20 hours at 37° C., 5% CO2.
Luciferase assays were conducted on Day 4 using Dual-Glo Luciferase assay system (Promega #E2940) according to Promega's protocol. Briefly, Dual-Glo luciferase reagent was made up and 100 μL were added to each well of the 96 well plate containing media. Plates were shaken at room temperature for 10 minutes, and then read on TopCount (Perkin-Elmer). The luminescence was recorded.

SMO CELL % INHIBITION @ 2 μM [%]	Compound
65.00	O=C(N[C@@H]1CN[C@H](c2nc3ccccc3[nH]2)C1)c1ccc2c(c1)OCCO2 [Example 9, N-[(3S,5S)-5-(1H-benzimidazol-2-yl)pyrrolidin-3-yl]-2,3-dihydro-1,4-benzodioxine-6-carboxamide]
110.10	O=C(N[C@@H]1CN[C@H](c2nc3ccccc3[nH]2)C1)c1ccc2c(c1)OCCO2 [Example 11, N-[(3S,5S)-5-(1H-benzimidazol-2-yl)pyrrolidin-3-yl]-2,3-dihydro-1,4-benzodioxine-6-carboxamide]

Same assay, conditions: C3H 10T1/2, 2 μM compound; transfected C3H10T1/2 cells, recombinant human SHh 250 ng/mL, 20 hours, luciferase readout; read-out: SMO CELL % INHIBITION @ 2 μM

inhibition at 2 µM [%]	Compound
105	Cc1ccc2nc([C@H]3C[C@H](NC(=O)c4ccc5c(c4)OCCO5)CCN3C)[nH]c2c1 (stereo in doubt) [Example 6, 2,3-Dihydro-benzo[1,4]dioxine-6-carboxylic acid [1-methyl-2-(6-methyl-1H-benzoimidazol-2-yl)-piperidin-4-yl]-amide hydrochloride]
109	CN1CC[C@@H](NC(=O)Nc2ccc(C#N)cc2)C[C@@H]1c1nc2cc(C(F)(F)F)ccc2[nH]1 [Example 7, 1-(4-cyanophenyl)-3-{(2R,4R)-1-methyl-2-[5-(trifluoromethyl)-1H-benzimidazol-2-yl]piperidin-4-yl}urea hydrochloride]
57.1	CC(C)(C)OC(=O)N1C[C@@H](NC(=O)Nc2ccc(Cl)c(C(F)(F)F)c2)C[C@H]1c1nc2ccccc2[nH]1 [Example 8, tert-butyl (2S,4S)-2-(1H-benzimidazol-2-yl)-4-[({[4-chloro-3-(trifluoromethyl)phenyl]amino}carbonyl)amino]pyrrolidine-1-carboxylate]
106	O=C(N[C@H]1C[C@@H](c2nc3ccccc3[nH]2)N(C(=O)OCc2ccccc2)C1)c1ccc2c(c1)OCCO2 [Example 10, benzyl (2S,4S)-2-(1H-benzimidazol-2-yl)-4-[(2,3-dihydro-1,4-benzodioxin-6-ylcarbonyl)amino]pyrrolidine-1-carboxylate]
64.1	O=C(N[C@@H]1CCN2CCn3c(nc4ccccc43)[C@H]2C1)c1ccc2c(c1)OCCO2 [Example 12, N-[(2R,13bR)-1,3,4,6,7,13b-hexahydro-2H-pyrido[2′,1′:3,4]pyrazino[1,2-a]benzimidazol-2-yl]-2,3-dihydro-1,4-benzodioxine-6-carboxamide hydrochloride]
84.2	O=C(Nc1ccc(Cl)c(C(F)(F)F)c1)N[C@@H]1CN[C@H](c2nc3ccc(F)cc3[nH]2)C1 [Example 13, 1-[4-chloro-3-(trifluoromethyl)phenyl]-3-[(3S,5S)-5-(6-fluoro-1H-benzimidazol-2-yl)pyrrolidin-3-yl]urea]
81.8	CN1C[C@H](NC(=O)Nc2ccc(Cl)c(C(F)(F)F)c2)C[C@H]1c1nc2ccc(F)cc2[nH]1 [Example 14, 1-[4-chloro-3-(trifluoromethyl)phenyl]-3-[(3R,5S)-5-(6-fluoro-1H-benzimidazol-2-yl)-1-methylpyrrolidin-3-yl]urea]
111	CN1CC[C@@H](NC(=O)Nc2ccncc2)C[C@@H]1c1nc2ccccc2[nH]1 [Example 16, 1-[(2R,4R)-2-(1H-benzimidazol-2-yl)-1-methylpiperidin-4-yl)-3-pyridin-4-ylurea hydrochloride]
63.2	Cc1ccc2nc([C@@H]3C[C@@H](NC(=O)Nc4ccc(Cl)c(C(F)(F)F)c4)CN3C)[nH]c2c1 [Example 17, 1-[4-chloro-3-(trifluoromethyl)phenyl]-3-[(3R,5S)-1-methyl-5-(6-methyl-1H-benzimidazol-2-yl)pyrrolidin-3-yl]urea]

Compound	inhibition at 2 µM [%]
CN1CC[C@@H](NC(=O)Nc2ccc(OC(F)(F)F)cc2)C[C@@H]1c1nc2ccccc2[nH]1 [Example 15, 1-[(2R,4R)-2-(1H-benzimidazol-2-yl)-1-methylpiperidin-4-yl]-3-[4-(trifluoromethoxy)phenyl]urea hydrochloride]	111
